Several values for one entry are separate records, joined by “and”; a condition that tells them apart may be missing. Equal values may be shown once. Inconclusive results and toxic doses are left out.
Tested on: P388 leukemia ip, CD2F1 mice, survival T/C
Experiment: NCI In Vivo Anticancer Drug Screen. Data for tumor model P388 Leukemia (intraperitoneal) in CD2F1 (CDF1) mice
Settings: endpoint: median survival time, higher = longer survival
In short: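 Mice carrying the transplanted tumor received test compound or vehicle. Survival was recorded in each group, and the value is the treated-group measurement divided by that of the vehicle-treated control group.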

[1] = dose: 50.0 mg/kg/injection, schedule: Q01DX009 (ip), vehicle: saline with Tween-80
[2] = dose: 100.0 mg/kg/injection, schedule: Q01DX009 (ip), vehicle: saline with Tween-80
[3] = dose: 200.0 mg/kg/injection, schedule: Q01DX009 (ip), vehicle: saline with Tween-80
[4] = dose: 50.0 mg/kg/injection, schedule: Q01DX005 (ip), vehicle: saline with Tween-80
[5] = dose: 100.0 mg/kg/injection, schedule: Q01DX005 (ip), vehicle: saline with Tween-80
[6] = dose: 200.0 mg/kg/injection, schedule: Q01DX005 (ip), vehicle: saline with Tween-80
[7] = dose: 25.0 mg/kg/injection, schedule: Q01DX009 (ip), vehicle: saline with Tween-80
[8] = dose: 60.0 mg/kg/injection, schedule: Q01DX005 (ip), vehicle: saline with Tween-80
[9] = dose: 120.0 mg/kg/injection, schedule: Q01DX005 (ip), vehicle: saline with Tween-80
[10] = dose: 240.0 mg/kg/injection, schedule: Q01DX005 (ip), vehicle: saline with Tween-80
[11] = dose: 50.0 mg/kg/injection, schedule: Q01DX005 (ip), vehicle: Klucel (hydroxypropylcellulose) (HPC)
[12] = dose: 100.0 mg/kg/injection, schedule: Q01DX005 (ip), vehicle: Klucel (hydroxypropylcellulose) (HPC)
[13] = dose: 200.0 mg/kg/injection, schedule: Q01DX005 (ip), vehicle: Klucel (hydroxypropylcellulose) (HPC)
[14] = dose: 100.0 mg/kg/injection, schedule: Q04DX003 (ip), vehicle: Klucel (hydroxypropylcellulose) (HPC)
[15] = dose: 200.0 mg/kg/injection, schedule: Q04DX003 (ip), vehicle: Klucel (hydroxypropylcellulose) (HPC)
[16] = dose: 50.0 mg/kg/injection, schedule: Q01DX009 (ip), vehicle: saline
[17] = dose: 100.0 mg/kg/injection, schedule: Q01DX009 (ip), vehicle: saline
[18] = dose: 100.0 mg/kg/injection, schedule: Q04DX003 (ip), vehicle: saline with Tween-80
[19] = dose: 200.0 mg/kg/injection, schedule: Q01DX009 (ip), vehicle: saline
[20] = dose: 200.0 mg/kg/injection, schedule: Q04DX003 (ip), vehicle: saline with Tween-80
[21] = dose: 400.0 mg/kg/injection, schedule: Q04DX003 (ip), vehicle: saline with Tween-80

In the case of `O=C1C(c2ccccc2)=S=C2Sc3ccccc3N12`, the T/C [1] is reported as 105 % of control, the T/C [2] is reported as 102 % of control and the T/C [3] is reported as 95 % of control.

`O=CNc1c2ccccc2c(NC=O)c2ccccc12` was tested, and the T/C [4] was 92 % of control, the T/C [5] was 88 % of control and the T/C [6] was 101 % of control.

In the case of `O=[N+]([O-])c1ccc(-c2nc(/C=N/N3CCS(=O)(=O)CC3)cs2)o1`, the T/C [7] is reported as 99 % of control, the T/C [1] is reported as 99 % of control and the T/C [2] is reported as 100 % of control.

`Cc1ccc(S(=O)(=O)NC(=O)NC(=S)c2ccco2)cc1` was tested, and the T/C (dose: 100.0 mg/kg/injection, schedule: Q01DX001 (ip), vehicle: saline with Tween-80) was 101 % of control, the T/C (dose: 200.0 mg/kg/injection, schedule: Q01DX001 (ip), vehicle: saline with Tween-80) was 97 % of control and the T/C (dose: 400.0 mg/kg/injection, schedule: Q01DX001 (ip), vehicle: saline with Tween-80) was 102 % of control.

In the case of `CC1(C)O[P+]2(OC(C)(C)c3ccccc32)c2ccccc21`, the T/C (dose: 100.0 mg/kg/injection, schedule: Q04DX002 (ip), vehicle: Klucel (hydroxypropylcellulose) (HPC)) is reported as 96 % of control, the T/C (dose: 200.0 mg/kg/injection, schedule: Q04DX002 (ip), vehicle: Klucel (hydroxypropylcellulose) (HPC)) is reported as 97 % of control and the T/C (dose: 400.0 mg/kg/injection, schedule: Q04DX002 (ip), vehicle: Klucel (hydroxypropylcellulose) (HPC)) is reported as 96 % of control.

For `C=C1CC1CC(N)C(=O)O` (configuration not stated), the T/C (dose: 1.25 mg/kg/injection, schedule: Q01DX009 (ip), vehicle: saline) was 108 % of control, the T/C (dose: 2.5 mg/kg/injection, schedule: Q01DX009 (ip), vehicle: saline) was 96 % of control and the T/C (dose: 5.0 mg/kg/injection, schedule: Q01DX009 (ip), vehicle: saline) was 100 % of control.

In the case of `COc1ccc(/C=C/Cc2cc3c(cc2OC)OCO3)cc1`, the T/C [8] is reported as 104 % of control, the T/C [9] is reported as 93 % of control and the T/C [10] is reported as 90 % of control.

`COc1c2occc2c(NC(=O)C(Cl)(Cl)Cl)c2ccc(=O)oc12` was tested, and the T/C (dose: 5.0 mg/kg/injection, schedule: Q04DX002 (ip), vehicle: saline with Tween-80) was 102 % of control, the T/C (dose: 10.0 mg/kg/injection, schedule: Q04DX002 (ip), vehicle: saline with Tween-80) was 101 % of control and the T/C (dose: 20.0 mg/kg/injection, schedule: Q04DX002 (ip), vehicle: saline with Tween-80) was 102 % of control.

In the case of `CN(CCO)c1cnn(CCO)c(=O)c1Cl`, the T/C (dose: 60.0 mg/kg/injection, schedule: Q01DX005 (ip), vehicle: saline) is reported as 102 % of control, the T/C (dose: 120.0 mg/kg/injection, schedule: Q01DX005 (ip), vehicle: saline) is reported as 105 % of control and the T/C (dose: 240.0 mg/kg/injection, schedule: Q01DX005 (ip), vehicle: saline) is reported as 102 % of control.

`CCCCNc1ccc2nnc(C)n2n1` was tested, and the T/C [11] was 103 % of control, the T/C (dose: 100.0 mg/kg/injection, schedule: Q01DX005 (ip), vehicle: DMSO) was 98 % of control and the T/C [12] was 108 % of control. For the same compound, the T/C (dose: 200.0 mg/kg/injection, schedule: Q01DX005 (ip), vehicle: DMSO) was 104 % of control and the T/C [13] was 100 % of control.

`CC(C)(C)CC(C)(C)NC(=S)NC1C2CC3CC(C2)CC1C3` (configuration not stated) was tested, and the T/C (dose: 50.0 mg/kg/injection, schedule: Q01DX009 (ip), vehicle: Klucel (hydroxypropylcellulose) (HPC)) was 89 % of control and the T/C (dose: 100.0 mg/kg/injection, schedule: Q01DX009 (ip), vehicle: Klucel (hydroxypropylcellulose) (HPC)) was 90 % of control.

With `CCOC(=O)c1ccc([O-])c([I+]c2ccccc2)c1` the T/C (dose: 50.0 mg/kg/injection, schedule: Q04DX003 (ip), vehicle: Klucel (hydroxypropylcellulose) (HPC)) was 100 % of control, the T/C [14] was 100 % of control and the T/C [15] was 101 % of control.

With `COc1ccc2c(C#N)cc3c(c[n+](C)c4ccccc34)c2c1` the T/C (dose: 12.5 mg/kg/injection, schedule: Q04DX003 (ip), vehicle: distilled water + Tween-80) was 105 % of control and the T/C (dose: 25.0 mg/kg/injection, schedule: Q04DX003 (ip), vehicle: distilled water + Tween-80) was 115 % of control.

For `COC1C(OC(=O)c2ccc(C)[nH]2)C(O)C(Oc2ccc3c(O)c(NC(=O)c4c[nH]c(C(=O)Nc5c(O)c6ccc(OC7OC(C)(C)C(OC)C(OC(=O)c8ccc(C)[nH]8)C7O)c(C)c6oc5=O)c4C)c(=O)oc3c2C)OC1(C)C` (configuration not stated), the T/C (dose: 6.25 mg/kg/injection, schedule: Q01DX009 (ip), vehicle: saline with Tween-80) was 110 % of control and 97 % of control, the T/C (dose: 12.5 mg/kg/injection, schedule: Q01DX009 (ip), vehicle: saline with Tween-80) was 100 % of control and 122 % of control and the T/C [7] was 96 % of control. The T/C [1] was 103 % of control, the T/C [16] was 118 % of control and the T/C [2] was 90 % of control. For the same compound, the T/C [17] was 113 % of control, the T/C [18] was 109 % of control and the T/C [3] was 109 % of control. For the same compound, the T/C [19] was 102 % of control, the T/C [20] was 100 % of control and the T/C (dose: 400.0 mg/kg/injection, schedule: Q01DX009 (ip), vehicle: saline with Tween-80) was 100 % of control. The T/C (dose: 400.0 mg/kg/injection, schedule: Q01DX009 (ip), vehicle: saline) was 117 % of control and the T/C [21] was 109 % of control.

In the case of `CC1CCC(C(C)(C)c2ccccc2)CC1OC(=O)/C=C/CC(C)(C)CC=C1C2CCC1N(C(=O)OCC(Cl)(Cl)Cl)N2C(=O)OCC(Cl)(Cl)Cl` (configuration not stated), the T/C (dose: 25.0 mg/kg/injection, schedule: Q01DX005 (ip), vehicle: Klucel (hydroxypropylcellulose) (HPC)) is reported as 89 % of control and the T/C [11] is reported as 89 % of control.

`C(=C/c1nc2ccccc2nc1CCN1CCCCC1)/c1ccc2c(c1)OCO2` was tested, and the T/C [4] was 100 % of control, the T/C [5] was 102 % of control and the T/C [6] was 102 % of control.

For `c1ccc(-c2nc3cccnc3s2)cc1`, the T/C [8] was 101 % of control, the T/C [9] was 101 % of control and the T/C [10] was 104 % of control.

`CCOc1cc(=O)cc2n(-c3cc(OCC)c(OC(C)=O)c(OCC)c3)c3ccccc3nc1-2` was tested, and the T/C (dose: 50.0 mg/kg/injection, schedule: Q01DX009 (ip), vehicle: suspension in saline) was 99 % of control, the T/C (dose: 100.0 mg/kg/injection, schedule: Q01DX009 (ip), vehicle: suspension in saline) was 100 % of control and the T/C (dose: 200.0 mg/kg/injection, schedule: Q01DX009 (ip), vehicle: suspension in saline) was 99 % of control.

In the case of `CP1(=O)CCC2=C1CCCC2` (configuration not stated), the T/C [18] is reported as 105 % of control, the T/C [20] is reported as 107 % of control and the T/C [21] is reported as 104 % of control.

`COc1cccc2c1C(=O)c1c(O)c3c(c(O)c1C2=O)CC(O)(C(C)=O)CC3OC1CC(NCC2(O)OCC(O)C(OC3OC(CO)C(O)C(O)C3O)C2O)C(O)C(C)O1` (configuration not stated) was tested, and the T/C (dose: 1.56 mg/kg/injection, schedule: Q04DX003 (ip), vehicle: water) was 100 % of control, the T/C (dose: 3.12 mg/kg/injection, schedule: Q04DX003 (ip), vehicle: water) was 98 % of control and 99 % of control and the T/C (dose: 3.13 mg/kg/injection, schedule: Q04DX003 (ip), vehicle: water) was 95 % of control. For the same compound, the T/C (dose: 6.25 mg/kg/injection, schedule: Q04DX003 (ip), vehicle: water) was 99 % of control and 102 % of control and 103 % of control, the T/C (dose: 12.5 mg/kg/injection, schedule: Q04DX003 (ip), vehicle: water) was 100 % of control and the T/C (dose: 25.0 mg/kg/injection, schedule: Q04DX003 (ip), vehicle: water) was 105 % of control and 108 % of control and 119 % of control. The T/C (dose: 50.0 mg/kg/injection, schedule: Q04DX003 (ip), vehicle: water) was 119 % of control.

For `O=c1c2nccnc2nc2n1CCS2`, the T/C [14] was 100 % of control, the T/C [15] was 101 % of control and the T/C (dose: 400.0 mg/kg/injection, schedule: Q04DX003 (ip), vehicle: Klucel (hydroxypropylcellulose) (HPC)) was 107 % of control.

With `COc1cc2nncc(Cl)c2cc1OC` the T/C [11] was 101 % of control.

`CCOc1cccc2c1NC(C)=C(C(=O)c1ccccc1)S2` was tested, and the T/C [8] was 100 % of control, the T/C [9] was 95 % of control and the T/C [10] was 91 % of control.

`c1cc2cc(-c3ccc4oc(C5=NCCN5)cc4c3)[nH]c2cc1C1=NCCN1` was tested, and the T/C [11] was 163 % of control, the T/C [12] was 160 % of control and the T/C [13] was 193 % of control.

`C#CCN(CC#C)S(=O)(=O)c1ccc(C)cc1` was tested, and the T/C [16] was 104 % of control, the T/C [17] was 108 % of control and the T/C [19] was 108 % of control.
